{"source": "patent US20250241926A1", "about": "“HETEROCYCLIC COMPOUNDS FOR USE IN THE TREATMENT OF CANCER” (ARTIOS PHARMA LIMITED, priority 2021, published 2025)"}
{"molecular_target": "T1, Human Polθ polymerase domain (aa1820-2590) (Homo sapiens, UniProt O75417)", "T1 construct": "Human Polθ polymerase domain (aa1820-2590) was expressed in E. Coli; made in house; host or cells: E. coli", "T1 sequence (O75417 1820-2590)": "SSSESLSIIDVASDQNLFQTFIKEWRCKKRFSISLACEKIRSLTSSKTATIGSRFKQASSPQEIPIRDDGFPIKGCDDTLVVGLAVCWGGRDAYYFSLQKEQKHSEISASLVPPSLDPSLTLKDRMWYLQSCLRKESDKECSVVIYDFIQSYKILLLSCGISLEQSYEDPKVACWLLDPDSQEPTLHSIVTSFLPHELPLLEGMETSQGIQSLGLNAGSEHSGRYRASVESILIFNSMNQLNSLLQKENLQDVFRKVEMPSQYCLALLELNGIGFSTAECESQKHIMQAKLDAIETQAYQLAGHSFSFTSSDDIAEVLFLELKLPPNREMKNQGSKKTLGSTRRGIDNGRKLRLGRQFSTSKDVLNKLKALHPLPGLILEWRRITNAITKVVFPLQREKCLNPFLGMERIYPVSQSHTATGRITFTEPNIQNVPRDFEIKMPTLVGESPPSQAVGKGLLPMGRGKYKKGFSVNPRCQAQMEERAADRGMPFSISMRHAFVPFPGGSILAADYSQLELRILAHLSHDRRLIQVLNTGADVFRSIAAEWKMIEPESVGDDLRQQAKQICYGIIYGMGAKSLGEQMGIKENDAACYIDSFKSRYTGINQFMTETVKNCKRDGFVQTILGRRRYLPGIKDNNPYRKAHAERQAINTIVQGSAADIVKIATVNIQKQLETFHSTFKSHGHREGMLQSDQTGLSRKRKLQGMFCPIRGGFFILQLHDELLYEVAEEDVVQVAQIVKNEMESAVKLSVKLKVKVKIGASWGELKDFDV", "experiment": "Polθ Polymerase Domain Kinact/Kl Assay (PicoGreen)", "format": "biochemical", "settings": "covalent inhibitors, kobs vs [I] fit, 0.8 nM Polθ, 100 nM DNA substrate", "protocol": "(§1) Polθ Polymerase Domain Kinact/Kl Assay\n(§2) A PicoGreen assay was used to measure the Kinact and Kl values of covalent compounds that inhibit the activity of Polθ in vitro.\n(§3) Human Polθ polymerase domain (aa1820-2590) was expressed in E. Coli, purified, aliquoted and stored at −80° C. until required. Polθ substrate was generated from a 1.2:1 mix of DNA II Short to DNA II Long to give a final concentration of […] substrate in annealing buffer (20 mM Tris pH 7.5, 50 mM NaCl). The substrate was heated in 50 mL aliquots to 95° C. in a heating block for 5 min before the heating block switched off, the reaction left to cool to rt and stored at −20° C. until required.\n(§4) Assay measurements were performed with 1× buffer comprising 25 mM Tris pH 7.5, 12.5 mM NaCl, […], 5% (v/v) glycerol, 0.01% v/v Triton x-100, 0.1 mg/ml BSA, 1 mM DTT. Test compounds were prepared by dilution in 100% DMSO to give a 12 μM intermediate stock of each (100× final top concentration). 100 nL of 23× 1:1.5-fold serial dilutions and a DMSO only control were dispensed using the Tecan dispenser into Greiner 384 well black low volume plates (product code 784076). DMSO concentration was maintained at 1% of the final assay volume by back filling with DMSO.\n(§5) 2× Working stock of substrate (200 nM of DNA substrate and […] dNTPs) and enzyme (1.4 nM Polθ) were made up in assay buffer. 5 μL/well of both enzyme and substrate 2× solutions were dispensed using a Tempest dispenser (Formulatrix) into assay plates that had been pre-dispensed with compound to give a final assay concentration of 100 nM DNA substrate, […] dNTPs and 0.8 nM Polθ. To stop the reaction, […] of a solution containing 25 mM Tris-HCl pH 7.5 and 20 mM EDTA was added at […] (t=0, 2.5, 5, 7.5, 10, 12.5, 15, 20, 25, 30, 35, 40, 45, 50, 55 and 60 min) using the Tempest's time delay function. The plates were covered during the time course to prevent evaporation. After completing the assay, 5 μL of detection reagent (25 mM Tris-HCl pH 7.5 and 2.5% (v/v) PicoGreen) was dispensed into the wells using a Tempest liquid handler (Formulatrix) and plates subsequently read on the CLARIOstar Plus (BMG Labtech) using the default optical settings for fluorescein and the auto gain/focus settings.\n(§6) All data analysis was carried out using GraphPad Prism V. 8 (GraphPad Software Inc, San Diego, CA) Time course data for each inhibitor concentration was fitted to equation 1 to determine kobs values.^1 Any time points where the control (DMSO alone) reaction was no longer linear were excluded from the analysis.\n(§7) A secondary plot of kobs vs [I] is used to determine the Kinact and Kl parameters (for a 2-step covalent inhibitor) by fitting to equation 2.1\n(§8) [formula] • 1) Evaluation of Enzyme Inhibitors in Drug Discovery (Ch9), R. A Copeland, Wiley, 2nd Edition 2013.", "units": {"kinact/KI": "M⁻¹ s⁻¹"}}
{"molecule": "(S)-2-((6-(2-(4-(1-Acrylo- yl-3-hydroxyazetidin-3- yl)piperidin-1-yl)ethyl)-7- fluoro-1-methyl-2-oxo- 1,2,3,4,5,6-hexahydro- benzo[b][1,4]diazocin-3- yl)amino)-6-methyl-4- (trifluoromethyl)nicotino- nitrile [Example 12]", "kinact/KI": 440000}
{"molecule": "Cc1cc(C(F)(F)F)c(C#N)c(N[C@H]2CCN(CC(O)CN3CCN(C(=O)/C=C/CN(C)C)CC3)c3cc(F)ccc3N(C)C2=O)n1", "note": "(mixture of isomers) [Example 34A, 2-(((S)-6-((S/R)-3-(4-((E)-4-(Dimethylamino)but-2-enoyl)piperazin-1-yl)-2-hydroxypropyl)-8-fluoro-1-methyl-2-oxo-1,2,3,4,5,6-hexahydrobenzo[b][1,4]diazocin-3-yl)amino)-6-methyl-4-(trifluoromethyl)nicotinonitrile]", "kinact/KI": 190000}
{"molecular_target": "T1, Human Polθ polymerase domain (aa1820-2590)", "experiment": "Polθ Polymerase Domain Kinact/Kl Assay (PicoGreen)", "format": "biochemical", "settings": "covalent inhibitors, kobs vs [I] fit, 0.8 nM Polθ, 100 nM DNA substrate, read-out: Kinact/KI", "protocol": "as §1, §2, §3, §4, §5, §6, §7, §8", "units": {"kinact/KI": "M⁻¹ s⁻¹"}}
{"molecule": "Cc1cc(C(F)(F)F)c(C#N)c(N[C@H]2CCN(C[C@H]3CN(C4CN(C(=O)/C=C/CN(C)C)C4)CCO3)c3c(F)cccc3N(C)C2=O)n1", "note": "[Example 60, 2-(((S)-6-(((R)-4-(1-((E)-4-(Dimethylamino)but-2-enoyl)azetidin-3-yl)morpholin-2-yl)methyl)-7-fluoro-1-methyl-2-oxo-1,2,3,4,5,6-hexahydrobenzo[b][1,4]diazocin-3-yl)amino)-6-methyl-4-(trifluoromethyl)nicotinonitrile]", "kinact/KI": 240000}
{"molecule": "C=CC(=O)N1CC2(CN(CCN3CC[C@H](Nc4nc(C)cc(C(F)(F)F)c4C#N)C(=O)N(C)c4cccc(F)c43)C[C@@H]3COCCN32)C1", "note": "[Example 61, 2-(((S)-6-(2-((R)-1-A cryloyltetrahydro-1′H-spiro[azetidine-3,6′-pyrazino[2,1-c][1,4]oxazin]-8′(7′H)-yl)ethyl)-7-fluoro-1-methyl-2-oxo-1,2,3,4,5,6-hexahydrobenzo[b][1,4]diazocin-3-yl)amino)-6-methyl-4-(trifluoromethyl)nicotinonitrile]", "kinact/KI": 500000}
{"molecule": "Cc1cc(C(F)(F)F)c(C#N)c(N[C@H]2CCN(CCN3CCOC4(CCN(C(=O)/C=C/CN(C)C)C4)C3)c3c(F)cccc3N(C)C2=O)n1", "note": "(stereo partly drawn) [Example 2, 2-(((S)-6-(2-(2-((E)-4-(Dimethylamino)but-2-enoyl)-6-oxa-2,9-diazaspiro[4.5]decan-9-yl)ethyl)-7-fluoro-1-methyl-2-oxo-1,2,3,4,5,6-hexahydrobenzo[b][1,4]diazocin-3-yl)amino)-6-methyl-4-(trifluoromethyl)nicotinonitrile]", "kinact/KI": 510000}
{"molecule": "C=CC(=O)N1CCN(CCCN2CC[C@H](Nc3nc(C)cc(C(F)(F)F)c3C#N)C(=O)N(C)c3cccc(F)c32)CC1", "note": "[Example 37, (S)-2-((6-(3-(4-Acryloylpiperazin-1-yl)propyl)-7-fluoro-1-methyl-2-oxo-1,2,3,4,5,6-hexahydrobenzo[b][1,4]diazocin-3-yl)amino)-6-methyl-4-(trifluoromethyl)nicotinonitrile]", "kinact/KI": 340000}
{"molecule": "C=CC(=O)N1CCN(CC(O)CN2CC[C@H](Nc3nc(C)cc(C(F)(F)F)c3C#N)C(=O)N(C)c3ccc(F)cc32)CC1", "note": "(single isomer, unassigned) [Example 33B]", "kinact/KI": 120000}
{"molecule": "Cc1cc(C(F)(F)F)c(C#N)c(N[C@H]2CCN(CCCOC3CN(C(=O)/C=C/CN(C)C)C3)c3c(F)cccc3N(C)C2=O)n1", "note": "[Example 40, (S,E)-2-((6-(3-((1-(4-(Dimethylamino)but-2-enoyl)azetidin-3-yl)oxy)propyl)-7-fluoro-1-methyl-2-oxo-1,2,3,4,5,6-hexahydrobenzo[b][1,4]diazocin-3-yl)amino)-6-methyl-4-(trifluoromethyl)nicotinonitrile]", "kinact/KI": "3e+06"}
{"molecule": "C=CC(=O)N1CC(OC2CCN(CCN3CC[C@H](Nc4nc(C)cc(C(F)(F)F)c4C#N)C(=O)N(C)c4cccc(F)c43)CC2)C1", "note": "[Example 13, (S)-2-((6-(2-(4-((1-Acrylo-ylazetidin-3-yl)oxy)piper-idin-1-yl)ethyl)-7-fluoro-1-methyl-2-oxo-1,2,3,4,5,6-hexahydrobenzo[b][1,4]diazocin-3-yl)amino)-6-methyl-4-(trifluorometh-yl)nicotinonitrile]", "kinact/KI": 320000}
{"molecule": "Cc1cc(C(F)(F)F)c(C#N)c(N[C@H]2CCN(CCCOC3CN(C(=O)/C=C/[C@H]4CCCN4C)C3)c3c(F)cccc3N(C)C2=O)n1", "note": "[Example 55, 2-(((S)-7-Fluoro-1-methyl-6-(3-((1-((E)-3-((R)-1-methylpyrrolidin-2-yl)acryloyl)azetidin-3-yl)oxy)propyl)-2-oxo-1,2,3,4,5,6-hexahydrobenzo[b][1,4]diazocin-3-yl)amino)-6-methyl-4-(trifluoromethyl)nicotinonitrile]", "kinact/KI": 810000}
{"molecule": "COCCN(C)C/C=C/C(=O)N1CC(OCCCN2CC[C@H](Nc3nc(C)cc(C(F)(F)F)c3C#N)C(=O)N(C)c3cccc(F)c32)C1", "note": "[Example 56, (S,E)-2-((7-Fluoro-6-(3-((1-(4-((2-methoxyethyl)(methyl)amino)but-2-enoyl)azetidin-3-yl)oxy)propyl)-1-methyl-2-oxo-1,2,3,4,5,6-hexahydrobenzo[b][1,4]diazocin-3-yl)amino)-6-methyl-4-(trifluoromethyl)nicotinonitrile]", "kinact/KI": "1.1e+07"}
{"molecule": "C=CC(=O)N1CC(c2noc(CN3CC[C@H](Nc4nc(C)cc(C(F)(F)F)c4C#N)C(=O)N(C)c4cccc(F)c43)n2)C1", "note": "[Example 67, (S)-2-((6-((3-(1-Acryloylazetidin-3-yl)-1,2,4-oxadiazol-5-yl)methyl)-7-fluoro-1-methyl-2-oxo-1,2,3,4,5,6-hexahydrobenzo[b][1,4]diazocin-3-yl)amino)-6-methyl-4-(trifluoromethyl)nicotinonitrile]", "kinact/KI": "1.3e+06"}
{"molecule": "Cc1cc(C(F)(F)F)c(C#N)c(N[C@H]2CCN(CCCOC3CN(C(=O)/C=C/CN(C)C)C3)c3cc(F)cc(F)c3N(C)C2=O)n1", "note": "[Example 43, (S,E)-2-((6-(3-((1-(4-(Dimethylamino)but-2-enoyl)azetidin-3-yl)oxy)propyl)-8,10-difluoro-1-methyl-2-oxo-1,2,3,4,5,6-hexahydrobenzo[b][1,4]diazocin-3-yl)amino)-6-methyl-4-(trifluoromethyl)nicotinonitrile]", "kinact/KI": 900000}
{"molecule": "C=CC(=O)N1CC2(CN(CCN3CC[C@H](Nc4nc(C)cc(C(F)(F)F)c4C#N)C(=O)N(C)c4cccc(F)c43)C[C@H]3COCCN32)C1", "note": "[Example 62, 2-(((S)-6-(2-((S)-1-Acryloyltetrahydro-1′H-spiro[azetidine-3,6′-pyrazino[2,1-c][1,4]oxazin]-8′(7′H)-yl)ethyl)-7-fluoro-1-methyl-2-oxo-1,2,3,4,5,6-hexahydrobenzo[b][1,4]diazocin-3-yl)amino)-6-methyl-4-(trifluoromethyl)nicotinonitrile]", "kinact/KI": "1.8e+06"}
